Measurements from PMC5678291, “Molecular Mechanism of Enzymatic Chlorite Detoxification: Insights from Structural and Kinetic Studies” (ACS Catalysis, 2017).

What was measured:
CCld = target: T1, CCld (Cyanothece sp. PCC 7425, UniProt B8HNS6); assay: UV-vis titration; format: binding; conditions: read-out: dissociation constant
T1 construct: gene Cyan7425_1434

Arg127 = Arg127 (UniProt position 127, LPGVARRLLHC); assay: neutron; conditions: 293 K; 0.15 M MgSO4; 0.1 M glycine-NaOH pH 9.0, 0.15 M MgSO4, 30% PEG 3350, 5% glycerol; Ferric CCld crystal, hydroxide (OD-) bound to the haem iron, Arg127 in the 'out' conformation

T1 sequence (B8HNS6 entry or part of it): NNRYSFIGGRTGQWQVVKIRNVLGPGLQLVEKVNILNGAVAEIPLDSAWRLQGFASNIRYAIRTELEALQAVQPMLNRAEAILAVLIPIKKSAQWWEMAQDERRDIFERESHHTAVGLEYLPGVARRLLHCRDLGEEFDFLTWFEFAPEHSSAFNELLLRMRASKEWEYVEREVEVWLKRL

## F [F^–, fluoride]
CCld
  Kd: 12.6 mM

## N#CS [SCN^–, thiocyanate]
CCld
  Kd: 0.074 mM

## Chlorite dismutase (CCld) (Cyanothece sp. PCC7425)
Arg127
  pKa: >9.0 (protonated at pH 9.0)
